Patent publication US20260234123A1, “Inhibitors of NLRP3” (Mwyngil Therapeutics, Inc., priority 2023, published 2026)

What follows are molecules tested on IL1b release THP-1 (assay: IL1b release THP-1 (ELISA)). Conditions: Homo sapiens, THP-1, read-out: THP 1 IL 1b, EC50, μM.
Assay type: cell-based
Method: Example A. Primary Assays Used to Determine IL1b Release THP-1 (ELISA)
• Microbiological safety cabinet, classII (NuAire, USA) • CO2 incubator (VWR Science, USA) • Countess Automated Cell Counter (Invitrogen, USA, cat. number C10227) • Centrifuge CM 6M (Elmi, Latvia) • Serological pipettes 2, 5, 10, 25, 50, 100 ml sterile (Santa Cruz Biotechnology, Inc., USA, sc-200277, sc-200279, sc-200281, sc-200283, Sc-213234, sc-516777) • Single and multichannel pipettes 0.2-10 μL, 50-1200 μL (Eppendorf AG-Hamburg, Germany) • 50 mL PP sterile tubes (Greiner, cat. Number 210261).
• RPMI-1640 (PanEco, C330) • Sodium pyruvate (Paneco, cat. number Φ023) • Non-Essential amino acids 50× (Paneco, Φ116) • Essential amino acids 50× (Paneco, Φ115/50) • FBS (Hyclone Laboratories Inc, USA, SV30160.03) • Antibiotic-antimycotic (Gibco, USA, 15240-062) • 2-mercaptoethanol 1000×55 mM (Gibco, USA, 21985-023) • LPS-EB ultrapure (invivogen, cat. number tlrl-3pelps) • Nigericin (Sigma, cat. number N7143) • ELISA kit, IL-1beta (Cat #A-8766, Interleukin-1 beta-EIA-BEST, Vector Best). LPS Preparation (5 mg/ml): • 1. Add 1 ml of endotoxin-free water according manufacturer's protocol • 2. Vortex until complete solubilization • 3. Aliquote and store at […] for long term storage.
• 1. Add methanol to 10 mg of powder to produce the 10 mM Nigericin solution • 2. Vortex until complete solubilization • 3. Store at 4° C.
THP-1 cells were propagated in RPMI-1640 (10% FBS, Antibiotic-antimycotic 1×, non-Essential amino acids 1×, Essential amino acids 1×, Sodium pyruvate 2×, 2-mercaptoethanol 0.05 mM) at 37° C. and at 5% CO2 in an incubator.
• 1. THP-1 cells were spined at 100 g for 5 min in 50 ml tube. • 2. THP-1 cells were resuspended in warm culture medium (w/o FBS, w/o Antibiotic-antimycotic, non-Essential amino acids 1×, Essential amino acids 1×, Sodium pyruvate 2×) to the concentration 1,3×10^6 cells. • 3. THP-1 cells were primed in tube with 1 μg/ml of LPS for 4 h at 37° C. and at 5% CO2 in an incubator. • 4. THP-1 cells were stimulated with 10 μM of Nigericin (Cat #N7143-10 MG, Sigma Aldrich) for 2 h at 37° C. and at 5% CO2 in an incubator. • 5. After the full activation, the supernatant was collected and the levels of IL-1β were assessed via ELISA according manufacturer instructions (Cat #A-8766, Vector Best).
The average EC50 values are shown in Table A, wherein “A” corresponds to EC50: A≤0.5 μM, “B” corresponds to 0.5 μM<EC50≤1.0 μM, “C” 1.0 μM<EC50≤5.0 μM, “D” corresponds to 5.0 μM<EC50≤30 μM and “E” corresponds to EC50>30 μM.

Compound | EC50
Cc1cc(-c2ccc(C(F)(F)F)cc2NS(C)(=O)=O)nnc1N[C@@H]1CCCN(C2CCC2)C1 [Compound 31, (R)—N-(2-(6-((1-Cyclobutylpiperidin-3-yl)amino)-5-methylpyridazin-3-yl)-5-(trifluoromethyl)phenyl) methanesulfonamide] | < 0.5 µM
CCC(C)N1CCC[C@@H](Nc2cc(C)c(-c3ccc(C(F)(F)F)cc3NS(C)(=O)=O)nn2)C1 (stereo partly drawn) [Compound 35, N-(2-(6-(((3R)-1-(sec-Butyl)piperidin-3-yl)amino)-4-methylpyridazin-3-yl)-5-(trifluoromethyl)phenyl) methanesulfonamide] | < 0.5 µM

Same assay, conditions: Homo sapiens; average EC50; THP-1 cells primed with 1 μg/ml LPS 4 h, stimulated with 10 μM Nigericin 2 h; IL-1β in supernatant by ELISA; read-out: THP 1 IL 1b, EC50

Compound | EC50
Cc1cc(N[C@@H]2CCCN(C)C2)nnc1-c1ccc(C(F)(F)F)cc1NS(C)(=O)=O [Compound 4, (R)—N-(2-(4-Methyl-6-((1-methylpiperidin-3-yl)amino)pyridazin-3-yl)-5-(trifluoromethyl)phenyl) methanesulfonamide] | 0.5 to 1 µM
Cc1cc(-c2ccc(C(F)(F)F)cc2NS(C)(=O)=O)nnc1N[C@@H]1CCCN(C2CCCC2)C1 [Compound 26, (R)—N-(2-(6-((1-Cyclopentylpiperidin-3-yl)amino)-5-methylpyridazin-3-yl)-5-(trifluoromethyl)phenyl) methanesulfonamide] | < 0.5 µM
CN1CCC[C@@H](Nc2nnc(-c3ccc(C(F)(F)F)c4c3NS(=O)(=O)N4)cc2C(F)(F)F)C1 [Compound 93, 6-[2,2-dioxo-4-(trifluoromethyl)-1,3-dihydro-2lambda6,1,3-benzothiadiazol-7-yl]-N-[(3R)-1-methyl-3-piperidyl]-4-(trifluoromethyl)pyridazin-3-amine] | 5 to 30 µM
CCN1CCC[C@@H](Nc2nnc(-c3ccc(C(F)(F)F)cc3NS(=O)(=O)C(C)C)cc2C)C1 [Compound 72] | 5 to 30 µM
Cc1cc(N[C@@H]2CCCN(C(C)C)C2)nnc1-c1ccc(C(F)(F)F)cc1NC(=O)C(F)(F)F [Compound 117, (R)-2,2,2-Trifluoro-N-(2-(6-((1-isopropylpiperidin-3-yl)amino)-4-methylpyridazin-3-yl)-5-(trifluoromethyl)phenyl) acetamide] | < 0.5 µM
Cc1cc(N[C@@H]2CCCN(C(C)C)C2)nnc1-c1ccc(C(F)(F)F)cc1NC(F)(F)F [Compound 122, N-[(3R)-1-isopropyl-3-piperidyl]-5-methyl-6-[4-(trifluoromethyl)-2-(trifluoromethylamino)phenyl]-pyridazin-3-amine] | 0.5 to 1 µM
CCN1CCC[C@@H](Nc2nnc(-c3ccc(C(F)(F)F)cc3NS(=O)(=O)c3c[nH]cn3)cc2C)C1 [Compound 68, (R)—N-(2-(6-((1-Ethylpiperidin-3-yl)amino)-5-methylpyridazin-3-yl)-5-(trifluoromethyl)phenyl)-1H-imidazole-5-sulfonamide] | 5 to 30 µM
CN1CCC[C@@H](Nc2cc(C(F)(F)F)c(-c3ccc(C(F)(F)F)cc3NS(C)(=O)=O)nn2)C1 [Compound 51, N-[2-[6-[[(3R)-1-methyl-3-piperidyl]amino]-4-(trifluoromethyl)pyridazin-3-yl]-5-(trifluoromethyl)phenyl]methanesulfon-amide] | 1 to 5 µM
Cc1cc(N[C@@H]2CCCN(C)C2)nnc1-c1ccc(C(F)(F)F)c2c1NS(=O)(=O)N2 [Compound 10, (R)-4-(4-Methyl-6-((1-methylpiperidin-3-yl)amino)pyridazin-3-yl)-7-(trifluoromethyl)-1,3-dihydrobenzo[c][1,2,5]thiadiazole 2,2-dioxide] | 5 to 30 µM
CCN1CCC[C@@H](Nc2cc(C)c(-c3ccc(C(F)(F)F)cc3NS(=O)(=O)CC)nn2)C1 [Compound 63, N-[2-[6-[[(3R)-1-ethyl-3-piperidyl]amino]-4-methyl-pyridazin-3-yl]-5-(trifluoromethyl)phenyl]ethanesulfon-amide] | < 0.5 µM
CCN1CCC[C@@H](Nc2cc(C)c(-c3ccc(C(F)(F)F)cc3NS(=O)(=O)c3c[nH]cn3)nn2)C1 [Compound 69, N-[2-[6-[[(3R)-1-ethyl-3-piperidyl]amino]-4-methyl-pyridazin-3-yl]-5-(trifluoromethyl)phenyl]-1H-imidazole-4-sulfonamide] | 1 to 5 µM
Cc1cc(N[C@@H]2CCCN(C(C)C)C2)nnc1-c1ccc(C(F)(F)F)cc1NC(C)C [Compound 111, 6-[2-(isopropylamino)-4-(trifluoromethyl)phenyl]-N-[(3R)-1-isopropyl-3-piperidyl]-5-methyl-pyridazin-3-amine] | < 0.5 µM
Cc1cc(N[C@@H]2CCCN(CCC(C)(C)O)C2)nnc1-c1ccc(C(F)(F)F)cc1NS(C)(=O)=O [Compound 55, (R)—N-(2-(6-((1-(3-Hydroxy-3-methylbutyl)piperidin-3-yl)amino)-4-methylpyridazin-3-yl)-5-(trifluoromethyl)phenyl) methanesulfonamide] | 1 to 5 µM
Cc1cc(N[C@@H]2CCCN(C3CCCCC3)C2)nnc1-c1ccc(C(F)(F)F)cc1NS(C)(=O)=O [Compound 41, N-[2-[6-[[(3R)-1-cyclohexyl-3-piperidyl]amino]-4-methyl-pyridazin-3-yl]-5-(trifluoromethyl)phenyl]methanesulfon-amide] | < 0.5 µM
CN1CCC[C@@H](Nc2cc(C(F)(F)F)c(-c3ccc(C(F)(F)F)c(N)c3N)nn2)C1 [Compound 101, 3-[6-[[(3R)-1-methyl-3-piperidyl]amino]-4-(trifluoromethyl)pyridazin-3-yl]-6-(trifluoromethyl)benzene-1,2-diamine] | 1 to 5 µM
Cc1cc(N[C@@H]2CCCN(C(C)C)C2)nnc1-c1ccc(C(F)(F)F)cc1NC(=O)C(F)F [Compound 113] | < 0.5 µM
COCCN1CCC[C@@H](Nc2cc(C)c(-c3ccc(C(F)(F)F)cc3NS(C)(=O)=O)nn2)C1 [Compound 56, (R)—N-(2-(6-((1-(2-Methoxyethyl)piperidin-3-yl)amino)-4-methylpyridazin-3-yl)-5-(trifluoromethyl)phenyl) methanesulfonamide] | 1 to 5 µM
CCN1CCC[C@@H](Nc2cc(C)c(-c3ccc(C(F)(F)F)cc3NC(C)=O)nn2)C1 [Compound 134, (R)—N-(2-(6-((1-ethylpiperidin-3-yl)amino)-4-methylpyridazin-3-yl)-5-(trifluoromethyl)phenyl) acetamide] | 0.5 to 1 µM
CCN1CCC[C@@H](Nc2cc(C)c(-c3ccc(C(F)(F)F)cc3NS(C)(=O)=O)nn2)C1 [Compound 5, (R)—N-(2-(6-((1-Ethylpiperidin-3-yl)amino)-4-methylpyridazin-3-yl)-5-(trifluoromethyl)phenyl) methanesulfonamide] | < 0.5 µM
CCN1CCC[C@@H](Nc2cc(C3CC3)c(-c3ccc(C(F)(F)F)cc3NS(C)(=O)=O)nn2)C1 [Compound 43, (R)—N-(2-(4-Cyclopropyl-6-((1-ethylpiperidin-3-yl)amino)pyridazin-3-yl)-5-(trifluoromethyl)phenyl) methanesulfonamide] | < 0.5 µM
COC(C)(C)CCN1CCC[C@@H](Nc2cc(C)c(-c3ccc(C(F)(F)F)cc3NS(C)(=O)=O)nn2)C1 [Compound 53, N-[2-[6-[[(3R)-1-(3-methoxy-3-methyl-butyl)-3-piperidyl]amino]-4-methyl-pyridazin-3-yl]-5-(trifluoromethyl)phenyl]methanesulfon-amide] | 1 to 5 µM
CCN1CCC[C@@H](Nc2nnc(-c3ccc(C(F)(F)F)cc3NS(C)(=O)=O)c3c2CCCC3)C1 [Compound 37, (R)—N-(2-(4-((1-Ethylpiperidin-3-yl)amino)-5,6,7,8-tetrahydrophthalazin-1-yl)-5-(trifluoromethyl)phenyl) methane sulfonamide] | < 0.5 µM
Cc1cc(N[C@@H]2CCCN(C(C)C)C2)nnc1-c1ccc(C(F)(F)F)cc1Nc1ccccc1 [Compound 112, 6-[2-anilino-4-(trifluoromethyl)phenyl]-N-[(3R)-1-isopropyl-3-piperidyl]-5-methyl-pyridazin-3-amine] | < 0.5 µM
